Assay results from ChEMBL document CHEMBL1154669, “5-Aryl indanones and derivatives as non-steroidal progesterone receptor modulators” (Bioorg Med Chem Lett, 2009).

Experiments:
Progesterone receptor [1] = target: T1, Progesterone receptor (Homo sapiens, UniProt P06401); test: Inhibition of progesterone receptor in human T47D cells assessed as progesteron-induced alkaline phosphatase activity; assay type: cell-based
T1 sequence (P06401 whole entry): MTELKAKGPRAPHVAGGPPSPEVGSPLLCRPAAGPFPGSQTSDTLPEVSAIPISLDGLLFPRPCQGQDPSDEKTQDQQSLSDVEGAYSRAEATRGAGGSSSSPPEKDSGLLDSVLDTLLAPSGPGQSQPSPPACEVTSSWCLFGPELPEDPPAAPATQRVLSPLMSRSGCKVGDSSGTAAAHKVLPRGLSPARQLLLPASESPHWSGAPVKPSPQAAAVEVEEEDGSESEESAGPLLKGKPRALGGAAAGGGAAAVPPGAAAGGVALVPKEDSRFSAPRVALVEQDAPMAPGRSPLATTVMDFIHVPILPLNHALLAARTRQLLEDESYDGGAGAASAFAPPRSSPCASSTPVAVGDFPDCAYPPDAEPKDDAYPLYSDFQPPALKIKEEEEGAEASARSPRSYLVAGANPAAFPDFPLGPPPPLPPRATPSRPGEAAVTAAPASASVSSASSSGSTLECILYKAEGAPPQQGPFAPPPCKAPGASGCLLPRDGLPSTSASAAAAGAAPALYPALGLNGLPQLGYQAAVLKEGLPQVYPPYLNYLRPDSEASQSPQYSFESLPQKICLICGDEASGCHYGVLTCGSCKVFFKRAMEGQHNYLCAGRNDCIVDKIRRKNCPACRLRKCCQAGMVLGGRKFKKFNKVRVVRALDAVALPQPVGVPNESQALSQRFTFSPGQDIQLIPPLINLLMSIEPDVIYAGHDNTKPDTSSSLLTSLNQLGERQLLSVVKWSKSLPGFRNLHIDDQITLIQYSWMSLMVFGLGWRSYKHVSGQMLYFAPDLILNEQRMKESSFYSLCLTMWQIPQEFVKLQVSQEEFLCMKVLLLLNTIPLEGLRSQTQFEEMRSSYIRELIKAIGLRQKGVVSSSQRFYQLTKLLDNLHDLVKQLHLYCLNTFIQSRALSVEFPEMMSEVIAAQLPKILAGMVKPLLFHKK

Progesterone receptor [2] = target: T1, Progesterone receptor; test: Agonist activity at progesterone receptor in human T47D cells assessed as alkaline phosphatase activity; assay type: functional, cell-based

For `Cc1cccc(-c2ccc3c(c2)C(C)(C)C/C3=N\O)c1`, which IC50 (Progesterone receptor [1]) is on record?
The IC50 was 316 nM.

For `CC1(C)C/C(=N\O)c2ccc(-c3cccc(C#N)c3)cc21`, which IC50 (Progesterone receptor [1]) is on record?
The IC50 was 317 nM.

For `CC1C/C(=N/O)c2ccc(-c3ccc(C#N)n3C)cc21` (configuration not stated), which IC50 (Progesterone receptor [1]) is on record?
Its IC50 is 65 nM.

And the EC50 (Progesterone receptor [2])?
Its EC50 is over 3000 nM.

With `Cn1c(C#N)ccc1-c1ccc2c(c1)CCC2=O` as the compound, how does the IC50 (Progesterone receptor [1]) read?
The IC50 was 34 nM.

And the EC50 (Progesterone receptor [2])?
The EC50 was over 3000 nM.

With `C#CCC1(O)CC(C)(C)c2cc(-c3ccc(C#N)n3C)ccc21` (configuration not stated) as the compound, how does the IC50 (Progesterone receptor [1]) read?
Its IC50 is 3 nM.

And the EC50 (Progesterone receptor [2])?
The EC50 was over 3000 nM.

Which IC50 (Progesterone receptor [1]) does the source give for `Cn1c(C#N)ccc1-c1ccc2c(c1)CC/C2=N/O` here?
Its IC50 is 132 nM.

And the EC50 (Progesterone receptor [2])?
The EC50 was over 3000 nM.

Which IC50 (Progesterone receptor [1]) does the source give for `CC1CC(O)c2ccc(-c3ccc(C#N)n3C)cc21` (configuration not stated) here?
The IC50 was 18 nM.

And the EC50 (Progesterone receptor [2])?
The EC50 was over 3000 nM.

For `Cn1c(C#N)ccc1-c1ccc2c(c1)C(C)(C)CC2(C)O` (configuration not stated), which EC50 (Progesterone receptor [2]) is on record?
The EC50 was 1 nM.

With `Cn1c(C#N)ccc1-c1ccc2c(c1)C(C)(C)CC2O` (configuration not stated) as the compound, how does the EC50 (Progesterone receptor [2]) read?
Its EC50 is 19 nM.

With `CC1(C)CC(=O)c2ccc(-c3cccc(C#N)c3)cc21` as the compound, how does the IC50 (Progesterone receptor [1]) read?
Its IC50 is 195 nM.

`CC1(C)C/C(=N\O)c2ccc(-c3cccc(Cl)c3)cc21` was tested. Which IC50 (Progesterone receptor [1]) did it give?
The IC50 was 490 nM.

With `CC1(C)CC(=O)c2ccc(-c3ccc(Cl)c(Cl)c3)cc21` as the compound, how does the IC50 (Progesterone receptor [1]) read?
The IC50 was 79 nM.

For `Cn1c(C#N)ccc1-c1ccc2c(c1)CCC2O` (configuration not stated), which IC50 (Progesterone receptor [1]) is on record?
Its IC50 is 10 nM.

What about the EC50 (Progesterone receptor [2]) of the same compound?
The EC50 was over 3000 nM.

How did the IC50 (Progesterone receptor [1]) turn out when `Cn1c(C#N)ccc1-c1ccc2c(c1)C(C)(C)C/C2=N/O` was run?
The IC50 was 14 nM.

And the EC50 (Progesterone receptor [2])?
The EC50 was over 3000 nM.

With `CCC1(O)CC(C)(C)c2cc(-c3ccc(C#N)n3C)ccc21` (configuration not stated) as the compound, how does the EC50 (Progesterone receptor [2]) read?
Its EC50 is 2 nM.
